The record followed here is paper PMC11345841, “Exploring 2-Sulfonylpyrimidine Warheads as Acrylamide Surrogates for Targeted Covalent Inhibition: A BTK Story” (Journal of Medicinal Chemistry, 2024).

Assay [1] relates to full-length wild-type BTK. The assay is described as follows: Intact protein mass spectrometry, covalent modification. The assay is classed as binding. The settings on record: 2:1 ratio of compound to protein (40 μM/20 μM), 23 °C.
Description: The proteins were injected into the sample loop and desalted for 3 min at 100 μL/min using water (0.1% formic acid) on an in-house packed POROS 20R-2 trap. Proteins were eluted into the mass spectrometer using a 15–70% ACN (0.1% formic acid) gradient in 10 min at a flow rate of 100 μL/min. Mass spectra were acquired using a Waters Synapt HDMSE mass spectrometer operated in TOF-only mode with a standard electrospray source, capillary voltage of 3200 V, and a cone voltage of 40 V with a mass range of 50–2000 m/z. Intact mass values for both free and labeled wild-type BTK were calculated from the raw m/z spectra using MaxEnt1 within MassLynx 4.1 (Waters) with a resolution of 0.05 Da and an output mass range of 65,000–85 000 Da.
The next assay concerns OCI-LY7 cells. The assay is described as follows: Anti-IgM-induced Ca2+ flux assay. It is filed as cell-based, human. The following applies: 1 h pretreatment, 1000 nM or lower concentrations. The protocol:
The effects of compounds on Ca^2+ release were then analyzed following treatment of OCI-LY7 cells (derived from a diffuse large B-cell lymphoma (DLBCL)) with anti-IgM to cross-link surface IgM (sIgM). […] For 8a and 8d, we performed similar experiments at lower concentrations.
Flow cytometry was performed using a FACS Canto II system (BD Biosciences). Data was acquired for 30 s before cells were stimulated with goat antihuman F(ab’)2 anti-IgM and data were acquired for a further 3.5 min. Cells were then treated with ionomycin (1 μM; Merck) and data were acquired for 2 min. Calcium responses were quantified by calculating area under the curve (AUC) in FlowJo (Becton Dickinson) from the point of addition of anti-IgM to the addition of ionomycin.
(Calcium flux is commonly read through the fluorescence of an indicator in the cells.)

For assay [2], the target named is T1, ABL1(F317I)-phosphorylated (Homo sapiens, UniProt P00519, F317I).
T1 construct: purchased Eurofins DiscoverX KINOMEscan (scanTK)
Kind of assay: KINOMEscan ScanTK. It is filed as binding.

The target of the next assay is T2, BRK (Homo sapiens, UniProt Q13882).
T2 construct: purchased Eurofins DiscoverX KINOMEscan (scanTK)
Kind of assay: KINOMEscan ScanTK. It is filed as binding.

The target in the next assay is T3, EPHB1 (Homo sapiens, UniProt P54762).
T3 construct: purchased Eurofins DiscoverX KINOMEscan (scanTK)
T3 sequence (P54762 18-984): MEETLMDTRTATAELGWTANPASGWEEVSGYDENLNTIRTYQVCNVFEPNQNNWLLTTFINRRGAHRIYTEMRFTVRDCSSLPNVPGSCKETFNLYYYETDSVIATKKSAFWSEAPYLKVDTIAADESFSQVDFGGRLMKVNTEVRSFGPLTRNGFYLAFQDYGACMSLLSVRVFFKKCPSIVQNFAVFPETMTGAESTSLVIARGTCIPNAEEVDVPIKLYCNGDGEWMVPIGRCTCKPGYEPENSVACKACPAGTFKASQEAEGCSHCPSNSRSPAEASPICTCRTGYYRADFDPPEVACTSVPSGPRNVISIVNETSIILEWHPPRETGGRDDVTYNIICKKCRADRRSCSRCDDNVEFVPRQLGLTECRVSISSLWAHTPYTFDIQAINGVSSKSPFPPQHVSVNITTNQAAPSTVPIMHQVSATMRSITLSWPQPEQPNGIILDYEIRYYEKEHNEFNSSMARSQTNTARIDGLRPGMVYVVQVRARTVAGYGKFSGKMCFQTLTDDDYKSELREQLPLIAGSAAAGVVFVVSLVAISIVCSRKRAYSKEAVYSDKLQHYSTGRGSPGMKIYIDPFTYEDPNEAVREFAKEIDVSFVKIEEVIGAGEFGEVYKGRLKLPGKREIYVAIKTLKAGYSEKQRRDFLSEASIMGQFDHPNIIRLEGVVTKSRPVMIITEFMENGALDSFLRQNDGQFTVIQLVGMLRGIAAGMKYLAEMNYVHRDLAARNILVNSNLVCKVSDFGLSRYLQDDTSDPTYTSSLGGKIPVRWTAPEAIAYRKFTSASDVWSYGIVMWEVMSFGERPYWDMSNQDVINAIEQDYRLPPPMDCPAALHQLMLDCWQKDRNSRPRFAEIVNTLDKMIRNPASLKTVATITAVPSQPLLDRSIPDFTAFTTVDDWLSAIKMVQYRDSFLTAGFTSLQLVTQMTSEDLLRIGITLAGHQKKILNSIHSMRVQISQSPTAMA
The assay is described as follows: KINOMEscan ScanTK. The settings on record: EPHB1. The assay is classed as binding.

In a further assay the test system is FLT3(ITD,D835V). Kind of assay: KINOMEscan ScanTK. The assay is classed as binding.
A further assay concerns the target T4, RET(V804L) (Homo sapiens, UniProt P07949, V804L).
T4 construct: purchased Eurofins DiscoverX KINOMEscan (scanTK)
Kind of assay: KINOMEscan ScanTK. The assay is classed as binding.

Another assay concerns the target T5, TNK2 (Homo sapiens, UniProt Q07912).
T5 construct: purchased Eurofins DiscoverX KINOMEscan (scanTK)
Kind of assay: KINOMEscan ScanTK. It is filed as binding.

Another assay deals with T6, TRKC (Homo sapiens, UniProt Q16288).
T6 construct: purchased Eurofins DiscoverX KINOMEscan (scanTK)
Kind of assay: KINOMEscan ScanTK. It is filed as binding. The settings on record: TRKC.

Another assay concerns the target T7, TYRO3 (Homo sapiens, UniProt Q06418).
T7 construct: purchased Eurofins DiscoverX KINOMEscan (scanTK)
T7 sequence (Q06418 41-890): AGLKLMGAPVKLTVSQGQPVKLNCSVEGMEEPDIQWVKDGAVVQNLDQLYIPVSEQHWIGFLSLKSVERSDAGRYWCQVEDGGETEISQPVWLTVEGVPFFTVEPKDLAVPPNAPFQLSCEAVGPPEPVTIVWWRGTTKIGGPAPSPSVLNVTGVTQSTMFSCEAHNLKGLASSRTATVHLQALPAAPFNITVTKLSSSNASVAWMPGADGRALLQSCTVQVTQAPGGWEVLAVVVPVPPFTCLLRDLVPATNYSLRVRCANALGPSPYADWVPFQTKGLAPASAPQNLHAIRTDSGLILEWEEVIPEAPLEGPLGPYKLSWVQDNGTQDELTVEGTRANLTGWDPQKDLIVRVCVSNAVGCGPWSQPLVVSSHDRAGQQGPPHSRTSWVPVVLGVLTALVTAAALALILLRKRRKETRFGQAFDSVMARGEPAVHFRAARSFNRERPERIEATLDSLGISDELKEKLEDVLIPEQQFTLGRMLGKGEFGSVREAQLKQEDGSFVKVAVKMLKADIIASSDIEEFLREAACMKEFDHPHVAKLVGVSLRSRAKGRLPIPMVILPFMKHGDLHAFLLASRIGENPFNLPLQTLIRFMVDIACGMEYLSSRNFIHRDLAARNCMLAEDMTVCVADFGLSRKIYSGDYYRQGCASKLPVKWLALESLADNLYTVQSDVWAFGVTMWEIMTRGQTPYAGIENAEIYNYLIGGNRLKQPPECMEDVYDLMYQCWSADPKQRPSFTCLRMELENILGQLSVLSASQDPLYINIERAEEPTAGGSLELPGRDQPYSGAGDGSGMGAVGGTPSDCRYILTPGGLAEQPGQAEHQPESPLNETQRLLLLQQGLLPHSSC
Kind of assay: KINOMEscan ScanTK. It is filed as binding.

Like-named read-outs stand apart in the source and are kept apart here.

T2 sequence (Q13882 whole entry): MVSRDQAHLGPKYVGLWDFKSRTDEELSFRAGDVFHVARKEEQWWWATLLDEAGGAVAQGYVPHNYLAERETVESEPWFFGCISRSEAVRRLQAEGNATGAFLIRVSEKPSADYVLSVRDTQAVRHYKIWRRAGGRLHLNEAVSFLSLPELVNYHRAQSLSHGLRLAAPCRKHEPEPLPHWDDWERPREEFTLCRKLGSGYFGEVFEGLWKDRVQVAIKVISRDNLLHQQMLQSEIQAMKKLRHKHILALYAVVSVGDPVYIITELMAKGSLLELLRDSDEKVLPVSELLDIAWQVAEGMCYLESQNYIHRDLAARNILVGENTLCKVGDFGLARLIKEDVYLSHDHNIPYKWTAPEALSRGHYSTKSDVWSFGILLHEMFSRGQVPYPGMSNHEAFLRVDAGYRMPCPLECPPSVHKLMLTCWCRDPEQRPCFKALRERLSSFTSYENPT
T6 sequence (Q16288 32-839): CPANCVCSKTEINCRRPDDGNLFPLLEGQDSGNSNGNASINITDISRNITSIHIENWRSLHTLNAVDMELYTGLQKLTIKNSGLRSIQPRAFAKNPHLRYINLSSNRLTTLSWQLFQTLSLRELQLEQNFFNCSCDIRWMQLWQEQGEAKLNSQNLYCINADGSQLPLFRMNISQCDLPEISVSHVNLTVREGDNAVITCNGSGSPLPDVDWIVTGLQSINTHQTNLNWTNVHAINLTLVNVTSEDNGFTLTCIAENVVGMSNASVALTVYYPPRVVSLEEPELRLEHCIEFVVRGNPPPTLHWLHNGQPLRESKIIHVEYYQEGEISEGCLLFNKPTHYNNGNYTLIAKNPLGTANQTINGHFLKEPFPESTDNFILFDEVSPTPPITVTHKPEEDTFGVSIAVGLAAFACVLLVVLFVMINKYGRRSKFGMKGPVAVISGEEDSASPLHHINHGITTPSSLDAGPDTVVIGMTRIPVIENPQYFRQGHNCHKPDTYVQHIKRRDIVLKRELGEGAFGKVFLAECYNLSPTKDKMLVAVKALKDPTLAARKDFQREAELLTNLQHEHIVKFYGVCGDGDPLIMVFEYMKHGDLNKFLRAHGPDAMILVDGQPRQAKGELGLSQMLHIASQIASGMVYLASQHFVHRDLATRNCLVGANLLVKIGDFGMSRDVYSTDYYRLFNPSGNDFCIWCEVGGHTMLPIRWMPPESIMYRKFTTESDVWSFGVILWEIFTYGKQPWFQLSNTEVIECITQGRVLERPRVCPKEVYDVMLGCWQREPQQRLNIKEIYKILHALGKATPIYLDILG
T1 sequence (P00519 whole entry F317I): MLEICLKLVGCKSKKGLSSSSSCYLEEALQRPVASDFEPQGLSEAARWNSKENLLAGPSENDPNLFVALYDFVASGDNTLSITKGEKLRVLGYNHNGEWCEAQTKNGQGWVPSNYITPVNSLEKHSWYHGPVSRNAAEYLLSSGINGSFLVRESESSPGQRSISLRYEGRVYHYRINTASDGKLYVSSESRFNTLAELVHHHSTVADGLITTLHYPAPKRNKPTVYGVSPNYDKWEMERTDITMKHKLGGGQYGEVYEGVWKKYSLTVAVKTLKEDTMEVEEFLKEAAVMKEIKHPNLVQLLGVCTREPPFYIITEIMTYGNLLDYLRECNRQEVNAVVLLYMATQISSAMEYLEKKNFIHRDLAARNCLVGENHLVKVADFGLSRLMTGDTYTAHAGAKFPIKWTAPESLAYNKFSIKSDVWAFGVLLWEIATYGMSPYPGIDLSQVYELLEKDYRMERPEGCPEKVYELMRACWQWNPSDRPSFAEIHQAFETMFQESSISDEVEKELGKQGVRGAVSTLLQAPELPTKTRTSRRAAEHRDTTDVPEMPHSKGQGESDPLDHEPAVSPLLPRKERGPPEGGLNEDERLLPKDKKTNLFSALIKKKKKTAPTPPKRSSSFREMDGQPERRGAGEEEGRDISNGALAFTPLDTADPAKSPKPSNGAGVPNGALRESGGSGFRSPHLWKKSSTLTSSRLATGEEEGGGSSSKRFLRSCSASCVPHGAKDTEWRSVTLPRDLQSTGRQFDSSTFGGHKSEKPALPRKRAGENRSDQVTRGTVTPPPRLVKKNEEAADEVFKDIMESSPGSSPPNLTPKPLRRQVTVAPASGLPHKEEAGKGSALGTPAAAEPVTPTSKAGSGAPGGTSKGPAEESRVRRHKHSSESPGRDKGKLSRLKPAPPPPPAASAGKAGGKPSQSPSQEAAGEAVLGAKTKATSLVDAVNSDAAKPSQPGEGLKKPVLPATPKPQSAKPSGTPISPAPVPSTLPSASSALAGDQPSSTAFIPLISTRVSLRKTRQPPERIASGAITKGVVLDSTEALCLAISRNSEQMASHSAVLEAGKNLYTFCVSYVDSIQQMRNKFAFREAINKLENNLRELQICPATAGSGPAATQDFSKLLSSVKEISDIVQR
T4 sequence (P07949 29-1114 V804L): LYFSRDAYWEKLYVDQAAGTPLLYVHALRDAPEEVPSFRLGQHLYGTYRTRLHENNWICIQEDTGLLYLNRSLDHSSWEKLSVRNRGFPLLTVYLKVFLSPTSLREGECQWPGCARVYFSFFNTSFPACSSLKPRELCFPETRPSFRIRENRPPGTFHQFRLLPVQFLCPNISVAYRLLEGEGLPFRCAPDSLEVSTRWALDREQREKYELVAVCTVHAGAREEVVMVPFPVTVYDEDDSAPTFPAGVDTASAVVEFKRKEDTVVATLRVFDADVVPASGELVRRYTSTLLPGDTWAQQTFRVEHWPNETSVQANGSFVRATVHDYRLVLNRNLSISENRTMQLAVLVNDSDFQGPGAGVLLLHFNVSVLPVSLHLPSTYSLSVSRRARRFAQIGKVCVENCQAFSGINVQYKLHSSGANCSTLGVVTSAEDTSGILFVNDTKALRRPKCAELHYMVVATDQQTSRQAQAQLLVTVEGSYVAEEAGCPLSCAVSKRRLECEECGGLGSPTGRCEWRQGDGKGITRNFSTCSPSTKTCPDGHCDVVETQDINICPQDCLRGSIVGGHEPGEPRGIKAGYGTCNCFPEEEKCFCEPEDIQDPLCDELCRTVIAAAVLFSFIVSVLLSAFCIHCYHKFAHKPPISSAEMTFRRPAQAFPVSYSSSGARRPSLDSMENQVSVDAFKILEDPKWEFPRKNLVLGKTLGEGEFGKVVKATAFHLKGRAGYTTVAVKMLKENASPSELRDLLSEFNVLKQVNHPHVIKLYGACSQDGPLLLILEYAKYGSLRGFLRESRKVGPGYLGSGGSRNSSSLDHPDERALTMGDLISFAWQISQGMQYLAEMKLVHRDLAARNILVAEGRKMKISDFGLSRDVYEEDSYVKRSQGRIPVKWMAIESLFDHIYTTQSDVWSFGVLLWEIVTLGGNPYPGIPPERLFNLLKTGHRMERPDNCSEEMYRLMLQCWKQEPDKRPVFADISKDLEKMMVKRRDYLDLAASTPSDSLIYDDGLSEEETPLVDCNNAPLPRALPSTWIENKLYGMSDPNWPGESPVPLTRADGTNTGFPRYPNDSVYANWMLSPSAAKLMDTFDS
T5 sequence (Q07912 whole entry): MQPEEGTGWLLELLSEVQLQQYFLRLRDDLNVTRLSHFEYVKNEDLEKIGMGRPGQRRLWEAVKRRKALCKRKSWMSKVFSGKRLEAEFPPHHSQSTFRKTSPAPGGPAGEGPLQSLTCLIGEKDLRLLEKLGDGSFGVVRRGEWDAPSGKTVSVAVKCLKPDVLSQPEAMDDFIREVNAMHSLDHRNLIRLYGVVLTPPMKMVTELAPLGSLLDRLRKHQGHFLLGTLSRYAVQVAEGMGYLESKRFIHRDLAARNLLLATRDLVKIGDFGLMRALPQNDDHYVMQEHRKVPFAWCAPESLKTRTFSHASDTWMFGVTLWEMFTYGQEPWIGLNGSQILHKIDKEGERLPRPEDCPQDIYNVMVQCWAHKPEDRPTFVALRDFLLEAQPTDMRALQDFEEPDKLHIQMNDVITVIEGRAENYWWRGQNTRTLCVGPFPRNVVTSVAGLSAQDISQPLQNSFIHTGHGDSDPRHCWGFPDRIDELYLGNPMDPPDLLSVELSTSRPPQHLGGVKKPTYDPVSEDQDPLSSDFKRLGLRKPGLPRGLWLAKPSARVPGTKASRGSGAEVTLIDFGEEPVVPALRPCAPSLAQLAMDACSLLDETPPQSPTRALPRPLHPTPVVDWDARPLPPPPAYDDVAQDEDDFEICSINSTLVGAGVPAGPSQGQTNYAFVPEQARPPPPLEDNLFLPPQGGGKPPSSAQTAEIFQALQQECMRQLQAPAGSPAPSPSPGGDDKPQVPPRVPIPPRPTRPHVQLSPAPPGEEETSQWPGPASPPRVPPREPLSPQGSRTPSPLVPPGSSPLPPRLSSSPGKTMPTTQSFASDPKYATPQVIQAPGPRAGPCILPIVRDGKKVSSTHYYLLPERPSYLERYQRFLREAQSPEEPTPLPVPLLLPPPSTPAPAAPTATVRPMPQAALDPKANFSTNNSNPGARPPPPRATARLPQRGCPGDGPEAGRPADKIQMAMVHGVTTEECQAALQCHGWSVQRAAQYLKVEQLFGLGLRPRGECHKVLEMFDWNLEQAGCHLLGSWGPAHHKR

As for `CNC(=O)c1cnc(S(C)(=O)=O)nc1N1CCCC(n2nc(-c3ccc(Oc4ccccc4)cc3)c3c(N)ncnc32)C1` (centres unmarked) [Compound 8d, 4-(3-(4-Amino-3-(4-phenoxyphenyl)-1H-pyrazolo[3,4-d]pyrimidin-1-yl)piperidin-1-yl)-N-methyl-2-(methylsulfonyl)pyrimidine-5-carboxamide], the “covalent modification of full-length WT BTK (intact mass)” value in assay [1] is “clean and quantitative modification in under an hour”. Further, the “effect on anti-IgM-induced Ca2+ flux” value with OCI-LY7 cells is listed as “maintained for these compounds at concentrations down to 250 nM”. In [2] (@1000nM), this compound registered a difference in %Control from reference compound Ib at 1 µM of 17%. For the same compound, the remaining binding at 1 µM in [2] (@1000nM, read-out: %Control) was found to be 90%; in [2] (read-out: %Control @1000nM), 90%; on BRK (@1000nM, read-out: %Control), 15%; on BRK (read-out: %Control @1000nM), 15%; at EPHB1 (@1000nM, read-out: %Control), 91%; at EPHB1 (read-out: %Control @1000nM), 91%. Further, the remaining binding at 1 µM was 93% on RET(V804L) (@1000nM, read-out: %Control); 93% on RET(V804L) (read-out: %Control @1000nM); 100% on TNK2 (@1000nM, read-out: %Control); 100% at TNK2 (read-out: %Control @1000nM); 92% at TRKC (@1000nM, read-out: %Control); 92% at TRKC (read-out: %Control @1000nM). Further, the remaining binding at 1 µM came to 32% at TYRO3 (@1000nM, read-out: %Control) and 32% at TYRO3 (read-out: %Control @1000nM). This compound also displayed a difference in %Control relative to compound Ib at 1 µM at BRK (@1000nM) of 13.7%. Besides, on EPHB1 (@1000nM), the difference in % of control versus compound Ib at 1 µM turned out to be 1%. Moreover, the “%Control @1000nM” value with FLT3(ITD,D835V) is given as 70%. Moreover, the “% difference (compound - Ib %Control)” value with FLT3(ITD,D835V) (@1000nM) is given as -7%. Further, the “%Control” value in the assay on FLT3(ITD,D835V) (@1000nM) stood at 70%. For the same compound, the difference in %Control versus compound Ib at 1 µM at TRKC (@1000nM) is -3%.
